This note sets out measurements from patent US10179123B2, “2-aryl- and 2-arylalkyl-benzimidazoles as mIDH1 inhibitors” (BAYER PHARMA AKTIENGESELLSCHAFT, priority 2015, dated 2019).

In general, pIC50 refers to the IC50 on a negative log10 scale, so that one unit is a factor of ten. A low value points to a large IC50.

The target of one test is IDH1 R132H enzyme (Homo sapiens (Human), UniProt O75874, R132H). Nature of the test: Mutant IDH1 R132H biochemical assay. Conditions: NADPH consumption, luminescent readout; 1.5 nM enzyme, 1 μM NADPH, 250 μM α-KG, 30 minutes, 32° C. As to the method:
NADPH consumption was measured by luminescent readout. […] The final DMSO concentration was 2.4%. […] Luminescence was measured on a luminescent reader (10 seconds measuring time, 1 second integration period, 30% sensitivity). The decrease in luminescence is proportional to mIDH1 activity. IC50 values are determined by interpolation from plots of relative luminescence versus inhibitor concentration.

Test [1] addresses mutated isocitrate dehydrogenase (mIDH) protein, LN229 R132H cells (Homo sapiens (Human), UniProt O75874, R132H). Nature of the test: Mutant IDH1 cellular assay (2-HG in medium of LN229 R132H cells). The format is cell-based. The note with it: 2-HG levels in medium, 24 hours. As to the method: Mutant IDH1 Cellular Assay
They were harvested by trypsin and seeded into 96-well plates. Cells were incubated overnight at 37° C. in 5% CO2. The next day test compounds were added to each cell well. The final concentration of DMSO was 0.1% and DMSO controls were included. The plates were then placed in an incubator for 24 hours.
2-HG was measured according to Balss et al. (Acta Neuropathol (2012) 124: 883-891). Briefly, HClO4 was added to each well and the plates were centrifuged. Aliquots are removed and incubated with hydroxyglutarate dehydrogenase (HGDH), diaphorase, NAD+, and resazurin. The conversion of resazurin to resorufin was detected by fluorescence spectroscopy at Ex 540 nm Em 600 nm. The increase in fluorescence is proportional to 2-HG production. IC50 values are determined by interpolation from plots of relative fluorescence vs inhibitor concentration.

pIC50: −log10 of the molar value.

Sequence of IDH1 R132H enzyme (O75874 whole entry R132H): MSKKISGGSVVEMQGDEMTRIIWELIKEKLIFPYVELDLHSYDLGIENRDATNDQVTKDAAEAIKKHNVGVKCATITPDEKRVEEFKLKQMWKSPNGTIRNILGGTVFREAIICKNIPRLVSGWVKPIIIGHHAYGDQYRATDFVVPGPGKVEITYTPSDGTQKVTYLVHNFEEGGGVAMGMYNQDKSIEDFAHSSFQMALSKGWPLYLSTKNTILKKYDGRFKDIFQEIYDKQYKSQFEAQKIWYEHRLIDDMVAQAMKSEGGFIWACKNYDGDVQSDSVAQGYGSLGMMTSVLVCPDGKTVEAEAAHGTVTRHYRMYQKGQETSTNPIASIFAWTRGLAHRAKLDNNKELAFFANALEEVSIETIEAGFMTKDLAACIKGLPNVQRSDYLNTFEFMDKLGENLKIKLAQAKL
Sequence of mutated isocitrate dehydrogenase (mIDH) protein, LN229 R132H cells (O75874 whole entry R132H): as above

For the compound `CC1(C)CC(n2c(Cc3ccc(OC(F)(F)F)cc3)nc3c(F)c(C(=O)O)ccc32)CC(C)(C)C1` [Example 2-48], the negative-log IC50 (pIC50) on IDH1 R132H enzyme is 7.10; in test [1] it was 6.10.
In the same order, the values of `C[C@H]1C[C@@H](n2c(Cc3ccc(C(F)(F)F)cc3)nc3cc(C(=O)O)ccc32)CC(C)(C)C1` (stereo in doubt) [Example 2-34] are 6.92 and 5.72.
In the same order, the values of `C[C@H]1C[C@@H](n2c(Cc3ccc(C(C)(C)C)cc3)nc3cc(C(=O)O)ccc32)CC(C)(C)C1` (stereo in doubt) [Example 2-37] are 7.30 and 5.60.
Consider `COc1cc2c(cc1CCC(=O)O)nc(Cc1ccc(OC(F)(F)F)cc1)n2[C@@H]1C[C@H](C)CC(C)(C)C1` (racemic) [Example 2-50], for which the pIC50 is 7.52 at IDH1 R132H enzyme and 6.68 in test [1].
In the same order, the values of `CC(C)c1ccc(Cc2nc3cc(C(=O)O)ccc3n2[C@@H]2C[C@H](C)CC(C)(C)C2)cc1` (stereo in doubt) [Example 2-33] are 7.30 and 6.46.
For `CC(C)Oc1cc2c(cc1C(=O)O)nc(Cc1ccc(OC(F)(F)F)cc1)n2[C@@H]1C[C@H](C)CC(C)(C)C1` (stereo in doubt) [Example 2-46] the same measures were 6.48 and 5.82.
As for `COC(=O)c1ccc2c(c1)nc(C(C)c1ccc(OC(F)(F)F)cc1)n2[C@H]1C[C@@H](C)CC(C)(C)C1` (single isomer, unassigned) [Reference compound 2-4-2, methyl 2-{1-[4-(trifluoromethoxy)phenyl]ethyl}-1-[(cis)-3,3,5-trimethylcyclohexyl]-1H-benzimidazole-5-carboxylate, reference compound], the negative logarithm of the IC50 (pIC50) at IDH1 R132H enzyme was < 5.00.
On the same count and under the same terms, the result for `COC(=O)c1ccc2c(c1)nc(Cc1ccc(C(C)(C)C)cc1)n2[C@H]1C[C@@H](C)CC(C)(C)C1` (racemic) [Example 2-11, (±) methyl 2-(4-tert-butylbenzyl)-1-[(cis)-3,3,5-trimethylcyclohexyl]-1H-benzimidazole-5-carboxylate] reads 5.85; that for `C[C@H]1C[C@@H](n2c(Cc3ccc(OC(F)(F)F)cc3)nc3cc(C(=O)O)c(OCC(F)(F)F)cc32)CC(C)(C)C1` (stereo in doubt) [Example 2-47], 6.00.
Same read-out and setting: as for `CC(C)c1ccc(Cc2nc3cc(C#N)ccc3n2[C@H]2C[C@@H](C)CC(C)(C)C2)cc1` (racemic) [Example 2-25, (±) 2-[4-(propan-2-yl)benzyl]-1-[(cis)-3,3,5-trimethylcyclohexyl]-1H-benzimidazole-5-carbonitrile], the figure is 6.46.
Still for that read-out and setting: the result for `COC(=O)c1cc2nc(Cc3ccc(OC(F)(F)F)cc3)n([C@H]3C[C@@H](C)CC(C)(C)C3)c2cc1OC(C)C` (single isomer, unassigned) [Example 2-20-1, methyl 6-(propan-2-yloxy)-2-[4-(trifluoromethoxy)benzyl]-1-[(cis)-3,3,5-trimethylcyclohexyl]-1H-benzimidazole-5-carboxylate] reads 5.89; that for `CC(C)Oc1cc2c(cc1C(=O)O)nc(Cc1ccc(OC(F)(F)F)cc1)n2[C@H]1C[C@@H](C)CC(C)(C)C1` (stereo in doubt) [Example 2-46-2], 6.30.
On to `C[C@H]1C[C@@H](n2c(Cc3ccccc3)nc3cc(C(=O)O)ccc32)CC(C)(C)C1` (stereo in doubt) [Example 2-38], for which the pIC50 against IDH1 R132H enzyme was 5.62.
In the case of `C[C@H]1C[C@@H](n2c(Cc3ccccc3OC(F)(F)F)nc3cc(C(=O)O)ccc32)CC(C)(C)C1` (stereo in doubt) [Example 2-39], on IDH1 R132H enzyme, the negative logarithm of the IC50 (pIC50) is 5.30. This pIC50 lies 0.32 log units lower than the previous one.
The same measure, in the same setting: the result for `COC(=O)c1ccc2c(c1)nc(Cc1ccc(C)cc1)n2[C@H]1C[C@@H](C)CC(C)(C)C1` (racemic) [Example 2-10, (±) methyl 2-(4-methylbenzyl)-1-[(cis)-3,3,5-trimethylcyclohexyl]-1H-benzimidazole-5-carboxylate] reads 5.82.
